# In patent US9040717B2, “Pyrazole-amide compounds and pharmaceutical use thereof” (JAPAN TOBACCO INC., priority 2013, dated 2015):
# Legend:
# [1] = tested on: adipose tissue PDH activity; assay: Ex vivo PDH activation assay, adipose tissue; type: in vivo, Sprague-Dawley rats
# Description: The action of test compound on tissue PDH activity was evaluated. NADH production was detected via p-iodonitrotetrazolium violet (INT)-coupled system to measure PDH activity.
# Normal male Sprague-Dawley rats were randomly allocated to the vehicle group and the test compound groups. The vehicle (0.5% aqueous methylcellulose solution, 5 mL/kg) or the test compound was orally administered to the rats. At 5 or 20 hr after administration, the rats were anesthetized with an intraperitoneal injection of sodium pentobarbital (60 mg/kg), and liver slices and epididymal adipose tissues were collected.
# To the adipose tissues were rapidly added 3 volumes of an ice-cold homogenization buffer, and the mixtures were homogenized using a Polytron homogenizer. The homogenates were centrifuged at 600×g, 4° C. for 10 min to obtain the supernatant. The supernatants were centrifuged at 16,000×g, 4° C. for 10 min to collect the precipitates. The precipitates were washed by resuspension in the homogenization buffer (1 mL) and centrifuged in the same manner. The precipitates were frozen with liquid nitrogen and stored at −80° C. as the adipose tissue mitochondrial fraction.
# The mitochondrial fractions were thawed and suspended with the sample buffer (0.25 mol/L sucrose, 20 mmol/L tris(hydroxymethyl)aminomethane hydrochloride (pH 7.5), 50 mmol/L potassium chloride, and 1 mL/L 4-(1,1,3,3-tetramethylbutyl)phenyl-polyethylene glycol (Triton X-100)). Active PDH activity (PDHa activity) and total PDH activity (PDHt activity) were measured to evaluate the PDH activity. For the measurement of the PDHt activity, equal amounts of the mitochondrial suspension and the activation buffer (0.25 mol/L sucrose, 20 mmol/L tris(hydroxymethyl)aminomethane hydrochloride (pH 7.5), 50 mmol/L potassium chloride, 1 mL/L Triton X-100, 4 mmol/L calcium chloride, 40 mmol/L magnesium chloride, 10 mmol/L sodium dichloroacetate) were mixed, and the mixtures were incubated at 37° C. for 10 min. Forty microliters of the mitochondrial suspensions diluted with a sample buffer were added to a 96-well microplate for activity measurement and blank measurement. Then 180 μL of the reaction mixture (0.056 mmol/L potassium phosphate buffer (pH 7.5), 5.6 mmol/L DL-carnitine, 2.8 mmol/L NAD, 0.22 mmol/L thiamin pyrophosphate, 0.11 mmol/L Coenzyme A, 1.1 mL/L Triton X-100, 1.1 mmol/L magnesium chloride, 1.1 g/L bovine serum albumin, 0.67 mmol/L INT, 7.2 μmol/L phenazine methosulfate, 28 mmol/L sodium oxamate) was added to each well, and then 20 μL of 50 mmol/L sodium pyruvate for activity measurement or water for blank measurement were added. The mixtures were incubated at room temperature under shading. The absorbances at 500-750 nm, which were attributable to reduction of INT, the final electron acceptor, were measured using a microplate reader over time and the changes in the absorbance were calculated. The PDH activity was calculated by subtraction of the change in absorbance of the blank well from that of the activity measurement well. The percentage of the PDHa activity to the PDHt activity was calculated and taken as an index of the PDH activation.
# [2] = target: hERG current in hERG-transfected HEK293 cells (Homo sapiens (Human), UniProt Q12809); assay: hERG whole cell patch clamp test; type: cell-based; conditions: for IC50: whole cell patch clamp
# Description: Using human ether-a-go-go related gene (hERG)-transfected HEK293 cells (Cytomyx Limited), an influence on hERG current was examined according to the whole cell patch clamp technique. The hERG-transfected HEK293 cells were passaged using a CO2 incubator (BNA-111, TABAI ESPEC CORP.) under the set conditions of 37° C., 5% CO2, saturated humidity. Culture containers used were Collagen Type I Coated 75 cm^2 flask (4123-010, AGC TECHNO GLASS CO., Ltd.) and Collagen Type I Coated 35 mm culture dish (4000-010, AGC TECHNO GLASS CO., Ltd.). The culture medium used was E-MEM (Eagle Minimum Essential Medium (Earle's Salts, Nikken biomedical laboratory) added with 10% FCS (Fetal calf serum, BioWest, L.L.C.) and 1% MEM Non-Essential Amino Acids Solution (NEAA, Invitrogen Corporation). Geneticin for the selection of hERG gene expressing cells was added thereto to a concentration of 400 μg/mL. As the cells for the measurement, 3×10^4 hERG-transfected HEK293 cells were plated on a 35 mm culture dish 4 to 7 days before measurement of the hERG current. The culture dish produced for the measurement contained the above-mentioned culture medium without geneticin (Invitrogen Corporation).
# The highest evaluation concentration of each compound was determined from the highest concentration at which precipitation was not found in the standard extracellular fluid (NaCl: 140 mmol/L, KCl: 2.5 mmol/L, MgCl2:2 mmol/L, CaCl2: 2 mmol/L, HEPES: 10 mmol/L, glucose: 10 mmol/L (adjusted to pH 7.4 with Tris-base)). As the application method, each solution to be applied was ejected from a Y-tube having a tip diameter of about 0.25 mm, which was adjacent (about 2 mm) to the cells, and applied to the cells. The ejection rate was about 0.4 mL/min.
# The experiment was performed at room temperature under a phase contrast microscope. The 35 mm culture dish plated with the cells was set on a measurement apparatus, and the standard extracellular fluid was continuously applied to the cells from the Y-tube. A glass electrode for the measurement was filled with an intracellular fluid (Potassium Gluconate: 130 mmol/L, KCl: 20 mmol/L, MgCl2: 1 mmol/L, ATP-Mg: 5 mmol/L, EGTA: 3.5 mmol/L, HEPES: 10 mmol/L (adjusted to pH 7.2 with Tris-base)). A conventional whole cell patch clamp method was applied to the cells, and the maintenance electric potential was set to −80 mV. Under a fixed electric potential, the whole cell current was amplified by an amplifier for patch clamp (AXOPATCH-200B, Axon Instruments, Inc.), and the data was loaded into a computer (IMC-P642400, Intermedical Co., Ltd.) using a data acquisition analysis software (pCLAMP 9.2, Axon Instruments, Inc.).
# The measurement of the hERG current was performed in the following two steps. In both cases, the hERG current was initiated by giving a command potential (maintenance electric potential −80 mV, prepulse +20 mV, 1.5 sec, test-pulse −50 mV, 1.5 sec).
# Step (1): The above-mentioned command potential was given at 0.1 Hz for 2 min.
# Step (2): The above-mentioned command potential was subjected to P/3 subtraction of pCLAMP 9.2 to remove leak current. This was repeated three times and an average thereof was taken as hERG current.
# Subsequent to step (1), Step (2) was performed (about 3 min), and the maximum tail current obtained by applying a test-pulse to the hERG current obtained by the method of step (2) was taken as hERG current value. Hereafter, the operations of (1) and (2) were alternately repeated until completion of the experiment and the hERG current value was measured.
# Stable hERG current value was recorded three times (about 10 min), and the standard extracellular fluid was instantaneously exchanged with each application fluid. The hERG current value was measured three times (about 10 min) in the same manner during perfusion of the application fluid, and the current value obtained by the 3rd measurement was taken as hERG current value after perfusion of the application fluid. […]
# [3] = Table 2, 5 hr after oral 3 mg/kg, non-fasting SD rats, vehicle 31 ± 10, mean ± S.D. (n = 3)
# [4] = Table 2, 20 hr after oral 3 mg/kg, non-fasting SD rats, vehicle 31 ± 10, mean ± S.D. (n = 3)
# Chain of hERG current in hERG-transfected HEK293 cells (Q12809 whole entry): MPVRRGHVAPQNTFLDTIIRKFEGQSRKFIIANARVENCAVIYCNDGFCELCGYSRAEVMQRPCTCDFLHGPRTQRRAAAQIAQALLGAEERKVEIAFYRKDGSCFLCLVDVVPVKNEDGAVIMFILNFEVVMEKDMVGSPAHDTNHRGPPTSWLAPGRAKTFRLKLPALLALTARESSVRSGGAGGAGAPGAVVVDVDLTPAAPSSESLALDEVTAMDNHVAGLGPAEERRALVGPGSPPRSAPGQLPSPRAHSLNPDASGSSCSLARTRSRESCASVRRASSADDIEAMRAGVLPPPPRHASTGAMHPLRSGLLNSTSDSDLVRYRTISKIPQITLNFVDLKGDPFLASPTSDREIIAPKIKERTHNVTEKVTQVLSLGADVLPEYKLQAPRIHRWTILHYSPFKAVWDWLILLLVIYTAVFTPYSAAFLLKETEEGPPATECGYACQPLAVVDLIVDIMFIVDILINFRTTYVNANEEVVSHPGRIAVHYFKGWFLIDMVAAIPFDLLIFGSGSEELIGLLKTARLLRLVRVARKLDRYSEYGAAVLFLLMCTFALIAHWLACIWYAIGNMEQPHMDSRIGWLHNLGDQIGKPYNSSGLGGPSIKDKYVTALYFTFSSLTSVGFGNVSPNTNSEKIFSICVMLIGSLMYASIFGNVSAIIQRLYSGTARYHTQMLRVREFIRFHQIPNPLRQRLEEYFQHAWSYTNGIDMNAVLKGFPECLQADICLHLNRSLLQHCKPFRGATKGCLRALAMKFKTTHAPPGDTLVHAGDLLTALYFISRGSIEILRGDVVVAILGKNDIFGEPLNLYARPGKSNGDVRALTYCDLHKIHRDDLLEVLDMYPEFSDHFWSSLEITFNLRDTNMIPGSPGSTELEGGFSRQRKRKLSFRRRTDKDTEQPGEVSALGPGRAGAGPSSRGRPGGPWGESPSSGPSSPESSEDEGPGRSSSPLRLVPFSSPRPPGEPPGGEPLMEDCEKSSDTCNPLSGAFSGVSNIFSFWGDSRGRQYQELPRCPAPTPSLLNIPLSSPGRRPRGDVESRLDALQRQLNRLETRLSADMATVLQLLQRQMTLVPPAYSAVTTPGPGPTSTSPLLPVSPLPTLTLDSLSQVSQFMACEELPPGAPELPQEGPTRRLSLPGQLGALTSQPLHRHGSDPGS
Compound,"PDHa activity (% of PDHt activity) ([1]; Table 3, 5 hr after oral 3 mg/kg, SD rats, vehicle 42 ± 4, mean ± S.D. (n = 3))","PDHa activity (% of PDHt activity) ([1]; Table 3, 20 hr after oral 3 mg/kg, SD rats, vehicle 42 ± 4, mean ± S.D. (n = 3))",hERG current Inhibition rate (%) ([2]; 30 μmol/L),IC50 [2],"PDHa activity (% of PDHt activity) [1, 3]","PDHa activity (% of PDHt activity) [1, 4]",hERG current Inhibition rate (%) ([2]; 10 μmol/L),hERG current Inhibition rate (%) ([2]; 1 μmol/L)
"CC(C)(O)CCOc1cc(-c2cnn(C(C)(C)C(N)=O)c2)c2c(c1)[C@@](O)(C(F)(F)F)c1ccccc1-2 [Compound (2), 2-{4-[(9R)-9-hydroxy-2-(3-hydroxy-3-methylbutyloxy)-9-(trifluoromethyl)-9H-fluoren-4-yl]-1H-pyrazol-1-yl}-2-methylpropanamide]",88 ± 11 % of PDHt activity,61 ± 15 % of PDHt activity,24.4%,> 30 µM,,,,
"CC(C)(O)CCCOc1cc(-c2cnn(C(C)(C)C(N)=O)c2)c2c(c1)[C@@](O)(C(F)(F)F)c1ccccc1-2 [Compound (3), 2-{4-[(9R)-9-hydroxy-2-(4-hydroxy-4-methylpentyloxy)-9-(trifluoromethyl)-9H-fluoren-4-yl]-1H-pyrazol-1-yl}-2-methylpropanamide]",,,27.3%,> 30 µM,70 ± 9 % of PDHt activity,42 ± 3 % of PDHt activity,,
"NC(=O)Cn1cc(-c2cc(OCCC34CC5CC(CC(O)(C5)C3)C4)cc3c2-c2ccccc2[C@]3(O)C(F)(F)F)cn1 [Compound (A), 2-(4-{(9R)-9-Hydroxy-2-[2-(3-hydroxyadamantan-1-yl)ethoxy]-9-(trifluoromethyl)-9H-fluoren-4-yl}-1H-pyrazol-1-yl)acetamide]",,,,,32 ± 14 % of PDHt activity,24 ± 7 % of PDHt activity,11.8%,
"Cn1cc(-c2cc(OCC(C)(C)O)cc3c2-c2ccccc2[C@]3(O)C(F)(F)F)cn1 [Compound (B), (9R)-2-(2-Hydroxy-2-methylpropoxy)-4-(1-methyl-1H-pyrazol-4-yl)-9-(trifluoromethyl)-9H-fluoren-9-ol]",,,,,59 ± 5 % of PDHt activity,30 ± 4 % of PDHt activity,72.9%,17.4%
